Source: ChEMBL document CHEMBL5252551, “A hit deconstruction approach for the discovery of fetal hemoglobin inducers” (Bioorg Med Chem Lett, 2018)
≈ marks a conversion by molar mass, not a printed value. Blank lines part the entries; values can stand above or below the compound they belong to. Calls of active or inactive are those of the source. No cut-off for these calls is given here.

Assays:
[1] = Solubility of the compound in FaSSIF; assay type: ADME
[2] = Induction of HbF production in human erythroid progenitor cells measured after 3 days by ELISA assay; assay type: functional, cell-based; conditions: Erythroid progenitor cell, 72 h
[3] = system: Erythroid progenitor cell; assay: (§1) Induction of HbF production in human erythroid progenitor cells at upto 33 uM measured after 3 days by ELISA assay; assay type: functional, cell-based; conditions: time 3.0 day
[4] = Oral bioavailability in Sprague-Dawley rat at 100 mg/kg; assay type: ADME, organism-based; conditions: in vivo
[5] = Dose normalized AUC in Sprague-Dawley rat at 5 mg/kg,po; assay type: ADME, organism-based; conditions: in vivo
[6] = Oral bioavailability in Sprague-Dawley rat at 5 mg/kg; assay type: ADME, organism-based; conditions: in vivo
[7] = Half life in Sprague-Dawley rat at 5 mg/kg,po; assay type: ADME, organism-based; conditions: in vivo
[8] = Cmax in Sprague-Dawley rat at 5 mg/kg,po; assay type: ADME, organism-based; parameters: dose 5 mg/kg, route po; conditions: in vivo
[9] = Half life in Sprague-Dawley rat at 100 mg/kg,po; assay type: ADME, organism-based; conditions: in vivo
[10] = Cmax in Sprague-Dawley rat at 100 mg/kg,po; assay type: ADME, organism-based; parameters: dose 100 mg/kg, route po; conditions: in vivo
[11] = Dose normalized AUC in Sprague-Dawley rat at 100 mg/kg,po; assay type: ADME, organism-based; conditions: in vivo
[12] = as §1; assay type: functional, cell-based; conditions: Erythroid progenitor cell, 72 h
[13] = Dose normalized AUC in Sprague-Dawley rat at 10 mg/kg,po; assay type: ADME, organism-based; conditions: in vivo
[14] = Half life in Sprague-Dawley rat at 10 mg/kg,po; assay type: ADME, organism-based; conditions: in vivo
[15] = Oral bioavailability in Sprague-Dawley rat at 10 mg/kg; assay type: ADME, organism-based; conditions: in vivo
[16] = Cmax in Sprague-Dawley rat at 10 mg/kg,po; assay type: ADME, organism-based; parameters: dose 10 mg/kg, route po; conditions: in vivo
[17] = Cmax in Sprague-Dawley rat at 1 mg/kg,iv; assay type: ADME, organism-based; parameters: dose 1 mg/kg, route iv; conditions: in vivo
[18] = Half life in Sprague-Dawley rat at 1 mg/kg, iv; assay type: ADME, organism-based; conditions: in vivo
[19] = Volume of distribution at steady state in Sprague-Dawley rat at 5 mg/kg,po or 1 mg/kg,iv; assay type: ADME, organism-based; conditions: in vivo
[20] = Dose normalized AUC in Sprague-Dawley rat at 1 mg/kg, iv; assay type: ADME, organism-based; conditions: in vivo
[21] = Genotoxicity in Salmonella typhimurium in presence of S9 fraction by Ames test; assay type: toxicity, subcellular; conditions: salmonella enterica subsp. enterica serovar typhimurium
[22] = Genotoxicity in Salmonella typhimurium in absence of S9 fraction by Ames test; assay type: toxicity; conditions: salmonella enterica subsp. enterica serovar typhimurium
[23] = Solubility of the compound in simulated intestinal fluid measured after 4 hrs; assay type: ADME
[24] = Dose normalized AUC in Sprague-Dawley rat at 28 mg/kg,po; assay type: ADME, organism-based; conditions: in vivo
[25] = Cmax in Sprague-Dawley rat at 28 mg/kg,po; assay type: ADME, organism-based; parameters: dose 28 mg/kg, route po; conditions: in vivo
[26] = Half life in Sprague-Dawley rat at 28 mg/kg,po; assay type: ADME, organism-based; conditions: in vivo
[27] = Oral bioavailability in Sprague-Dawley rat at 28 mg/kg; assay type: ADME, organism-based; conditions: in vivo

SMILES: O=C(CNC(=O)c1ccc2c(c1)B(O)OC2)NCc1ccccc1
EC50 ([2]; read-out: pEC50 (converted)): > 31600 nM

SMILES: Cc1ccc(NC(=O)c2cccn(Cc3ccccc3)c2=O)cc1B(O)O
EC50 ([2]; read-out: pEC50 (converted)): > 31600 nM | Activity [3]: inactive

SMILES: OB1OCc2ccc(Oc3nnn[nH]3)cc21
solubility [1]: > 1000 µg/mL | EC50 ([2]; read-out: pEC50 (converted)): 129 nM

SMILES: O=C(Cc1ccc2c(c1)B(O)OC2)NS(=O)(=O)C1CCCC1
solubility [1]: 880 µg/mL (≈ 2.72 mM) | EC50 ([2]; read-out: pEC50 (converted)): 15.1 nM

SMILES: O=C(O)Cc1ccc2c(c1)B(O)OC2
solubility [1]: > 1000 µg/mL | EC50 ([2]; read-out: pEC50 (converted)): 1070 nM

SMILES: O=C(Nc1cccn(Cc2ccccc2)c1=O)c1cc2c(cc1F)COB2O
EC50 ([2]; read-out: pEC50 (converted)): > 31600 nM

SMILES: O=C(Cc1ccc2c(c1)B(O)OC2)NS(=O)(=O)C1CC1
solubility [1]: 700 µg/mL (≈ 2.37 mM) | EC50 ([2]; read-out: pEC50 (converted)): 18.2 nM

SMILES: CC(C(=O)NS(=O)(=O)C1CC1)c1ccc2c(c1)B(O)OC2 (racemic)
solubility [1]: > 1000 µg/mL | EC50 ([2]; read-out: pEC50 (converted)): 26.9 nM

SMILES: NC(=O)c1ccc2c(c1)B(O)OC2
EC50 ([2]; read-out: pEC50 (converted)): > 31600 nM

SMILES: COc1cc2c(cc1C(=O)NS(=O)(=O)c1ccccc1)B(O)OC2
EC50 [12]: > 31.6 µM

SMILES: CC(C(=O)O)c1ccc2c(c1)B(O)OC2 (racemic)
solubility [1]: > 1000 µg/mL | EC50 ([2]; read-out: pEC50 (converted)): 47.9 nM

SMILES: O=C(Nc1cccn(Cc2ccccc2)c1=O)c1ccc2c(c1F)B(O)OC2
solubility [1]: 4 µg/mL (≈ 0.0106 mM) | EC50 ([2]; read-out: pEC50 (converted)): 91.2 nM

SMILES: O=C(Nc1cccc(B(O)O)c1)c1cccn(Cc2ccccc2)c1=O
EC50 ([2]; read-out: pEC50 (converted)): > 31600 nM | Activity [3]: inactive

SMILES: CC(C)(c1ccc2c(c1)B(O)OC2)c1nnn[nH]1
solubility [1]: 930 µg/mL (≈ 3.81 mM) | EC50 ([2]; read-out: pEC50 (converted)): 26.3 nM | AUC/dose [5]: 612 kg·ng·h/mL/mg | bioavailability [6]: 68% | half-life [7]: 63 min | AUC/dose [13]: 1049 kg·ng·h/mL/mg | half-life [14]: 91.8 min | Cmax [8]: 1180 ng/mL | bioavailability [15]: > 100% | Cmax [16]: 3880 ng/mL

SMILES: O=C(Nc1ccc2c(c1)B(O)OC2)c1cccn(Cc2ccccc2)c1=O
AUC/dose [5]: 1120 kg·ng·h/mL/mg | Cmax [17]: 792 ng/mL | bioavailability [6]: 27% | half-life [7]: 270 min | half-life [18]: 384 min | Vdss [19]: 1.7 L/kg | Cmax [8]: 1420 ng/mL | AUC/dose [20]: 4210 kg·ng·h/mL/mg

SMILES: CC(C)C(C(=O)O)c1ccc2c(c1)B(O)OC2 (racemic)
solubility [1]: > 1000 µg/mL | EC50 ([2]; read-out: pEC50 (converted)): 646 nM

SMILES: O=C(CCc1ccc2c(c1)B(O)OC2)NS(=O)(=O)c1ccccc1
solubility [1]: > 1000 µg/mL | EC50 ([2]; read-out: pEC50 (converted)): 832 nM

SMILES: O=C(Nc1cccn(Cc2ccccc2)c1=O)c1ccc2c(c1)B(O)OC2
solubility [1]: 3 µg/mL (≈ 0.00833 mM) | EC50 ([2]; read-out: pEC50 (converted)): 1020 nM | Activity [21]: Non-Toxic | Activity [22]: Non-Toxic | solubility at 4 h [23]: 3 µg/mL (≈ 0.00833 mM)

SMILES: CCC(C(=O)O)c1ccc2c(c1)B(O)OC2 (racemic)
solubility [1]: 850 µg/mL (≈ 3.86 mM) | EC50 ([2]; read-out: pEC50 (converted)): 50.1 nM

SMILES: O=C(Cc1ccc2c(c1)B(O)OC2)NS(=O)(=O)c1ccccc1
solubility [1]: 900 µg/mL (≈ 2.72 mM) | EC50 ([2]; read-out: pEC50 (converted)): 64.6 nM | AUC/dose [5]: 560 kg·ng·h/mL/mg | AUC/dose [24]: 2120 kg·ng·h/mL/mg | bioavailability [6]: 28% | half-life [7]: 437 min | Cmax [25]: 53 µg/mL | Cmax [8]: 1290 ng/mL | half-life [26]: 233 min | bioavailability [27]: > 100%

SMILES: CC(C)(C)OC(=O)NCc1ccc(S(=O)(=O)NC(=O)CCc2ccc3c(c2)B(O)OC3)cc1
EC50 [12]: 0.912 µM

SMILES: O=C(O)c1ccn(-c2ccc3c(c2)B(O)OC3)c1
solubility [1]: 510 µg/mL (≈ 2.1 mM) | EC50 ([2]; read-out: pEC50 (converted)): 316 nM

SMILES: NC(=O)CNC(=O)c1ccc2c(c1)B(O)OC2
EC50 ([2]; read-out: pEC50 (converted)): > 31600 nM

More lines, now with the values ahead:

solubility [1]: 8 µg/mL (≈ 0.0212 mM) | EC50 ([2]; read-out: pEC50 (converted)): 2140 nM
SMILES: O=C(Nc1cccn(Cc2ccccc2)c1=O)c1cc(F)c2c(c1)B(O)OC2

solubility [1]: > 1000 µg/mL | EC50 ([2]; read-out: pEC50 (converted)): 724 nM
SMILES: OB1OCc2ccc(Oc3nnn[nH]3)c(F)c21

solubility [1]: 950 µg/mL (≈ 5.34 mM) | EC50 ([2]; read-out: pEC50 (converted)): 9330 nM
SMILES: O=C(O)c1ccc2c(c1)B(O)OC2

solubility [1]: > 1000 µg/mL | EC50 ([2]; read-out: pEC50 (converted)): 115 nM
SMILES: CC(C)(C(=O)O)c1ccc2c(c1)B(O)OC2

solubility [1]: > 1000 µg/mL | EC50 ([2]; read-out: pEC50 (converted)): 11500 nM
SMILES: O=C(O)c1cccn1-c1ccc2c(c1)B(O)OC2

solubility [1]: 980 µg/mL (≈ 3.09 mM) | EC50 ([2]; read-out: pEC50 (converted)): 110 nM
SMILES: O=C(NS(=O)(=O)c1ccc2c(c1)B(O)OC2)c1ccccc1

solubility [1]: 950 µg/mL (≈ 4.61 mM) | EC50 ([2]; read-out: pEC50 (converted)): 871 nM | bioavailability [4]: > 100% | AUC/dose [5]: 451 kg·ng·h/mL/mg | bioavailability [6]: 88% | half-life [7]: 68.4 min | Cmax [8]: 1730 ng/mL | half-life [9]: 272 min | Cmax [10]: 47200 ng/mL | AUC/dose [11]: 683 kg·ng·h/mL/mg
SMILES: C[C@H](C(=O)O)c1ccc2c(c1)B(O)OC2

EC50 [12]: 6.03 µM
SMILES: NCc1ccc(S(=O)(=O)NC(=O)CCc2ccc3c(c2)B(O)OC3)cc1

solubility [1]: > 1000 µg/mL | EC50 ([2]; read-out: pEC50 (converted)): 275 nM | bioavailability [4]: 62% | AUC/dose [5]: 38 kg·ng·h/mL/mg | bioavailability [6]: 13% | half-life [7]: 78 min | Cmax [8]: 71 ng/mL | half-life [9]: 212 min | Cmax [10]: 4900 ng/mL | AUC/dose [11]: 184 kg·ng·h/mL/mg
SMILES: OB1OCc2ccc(OCc3nnn[nH]3)cc21

solubility [1]: > 1000 µg/mL | EC50 ([2]; read-out: EC50): 40 nM | EC50 ([2]; read-out: pEC50 (converted)): 39.8 nM | AUC/dose [5]: 429 kg·ng·h/mL/mg | bioavailability [6]: 83% | half-life [7]: 996 min | AUC/dose [13]: 283 kg·ng·h/mL/mg | half-life [14]: 182 min | Cmax [8]: 1860 ng/mL | bioavailability [15]: 55% | Cmax [16]: 2710 ng/mL
SMILES: C[C@@H](C(=O)O)c1ccc2c(c1)B(O)OC2

EC50 ([2]; read-out: pEC50 (converted)): > 31600 nM
SMILES: O=C(O)CNC(=O)c1ccc2c(c1)B(O)OC2

solubility [1]: > 1000 µg/mL | EC50 ([2]; read-out: pEC50 (converted)): 9.12 nM | AUC/dose [5]: 103 kg·ng·h/mL/mg | bioavailability [6]: 24% | half-life [7]: 220 min | Cmax [8]: 283 ng/mL
SMILES: OB1OCc2ccc(Cc3nnn[nH]3)cc21

solubility [1]: > 1000 µg/mL | EC50 ([2]; read-out: pEC50 (converted)): 1120 nM
SMILES: O=C(O)CCc1ccc2c(c1)B(O)OC2
